Laboratory results as given in ChEMBL document CHEMBL1201862, “PubChem BioAssay data set” (2004).
The source made the active and inactive calls. For most assays here, no stated cut-off is given here; in the data, actives have a measured EC50 and inactives only a lower limit.

Experiments:
[1] = Luminescence Cell-Based Dose Response HTS to Identify Activators of Luciferase Translation or Activity in H4 […] Cells. [Related pubchem assays: 1829 (Project Summary), 1814 (Primary HTS)]; format: functional
H4 = experiment: Luminescence Cell-Based Dose Response HTS to Identify Activators of 5'UTR Stem-Loop Driven Prion Protein mRNA Translation in H4 Neuroglioblastoma Cells. [Related pubchem assays: 1829 (Project Summary), 1814 (Primary HTS)]; format: functional; conditions: Homo sapiens
[2] = Luminescence Cell-Based Dose Confirmation HTS to Identify Activators of 5'UTR Stem-Loop Driven Alpha-Synuclein mRNA Translation in H4 Neuroglioblastoma Cells. [Related pubchem assays: 1829 (Project Summary), 1814 (Primary HTS)]; format: functional
Large T antigen = Large T antigen (Simian virus 40, UniProt P03070); format: functional, Betapolyomavirus macacae;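 further: Confirmatory-stage PubChem screen for compounds that inhibit SV40 T antigen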
Sequence of Large T antigen (P03070 whole entry, the tested form may be a part): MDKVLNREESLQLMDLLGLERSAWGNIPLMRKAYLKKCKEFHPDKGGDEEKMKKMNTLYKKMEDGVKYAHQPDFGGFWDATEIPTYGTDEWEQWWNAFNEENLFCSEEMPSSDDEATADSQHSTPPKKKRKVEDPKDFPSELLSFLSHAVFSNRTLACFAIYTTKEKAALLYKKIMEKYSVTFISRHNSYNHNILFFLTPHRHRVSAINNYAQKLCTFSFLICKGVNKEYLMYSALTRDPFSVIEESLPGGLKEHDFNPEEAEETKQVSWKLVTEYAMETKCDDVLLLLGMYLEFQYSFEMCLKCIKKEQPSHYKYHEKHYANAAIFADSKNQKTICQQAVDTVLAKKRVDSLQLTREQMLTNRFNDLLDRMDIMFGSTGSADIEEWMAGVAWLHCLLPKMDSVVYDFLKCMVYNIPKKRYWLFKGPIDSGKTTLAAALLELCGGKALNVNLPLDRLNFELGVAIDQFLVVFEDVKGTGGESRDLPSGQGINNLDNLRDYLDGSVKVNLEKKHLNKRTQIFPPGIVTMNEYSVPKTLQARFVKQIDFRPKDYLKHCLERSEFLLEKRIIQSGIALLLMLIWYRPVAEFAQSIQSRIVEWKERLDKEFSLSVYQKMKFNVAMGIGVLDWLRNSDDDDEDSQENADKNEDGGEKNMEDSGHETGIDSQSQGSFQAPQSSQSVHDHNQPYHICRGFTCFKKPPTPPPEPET

[3] = target: T1, RNA-binding protein pos-1 (Caenorhabditis elegans, UniProt G5EF15); experiment: inhibitors of POS-1/mex-3 RNA binding, dose response, biochemical, fluorescence polarization (AID 1964);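 further: purified POS-1 fused to maltose binding protein made in E. coli; potency of compounds blocking POS-1 binding to fluorescent RNA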
T1 sequence (G5EF15 whole entry): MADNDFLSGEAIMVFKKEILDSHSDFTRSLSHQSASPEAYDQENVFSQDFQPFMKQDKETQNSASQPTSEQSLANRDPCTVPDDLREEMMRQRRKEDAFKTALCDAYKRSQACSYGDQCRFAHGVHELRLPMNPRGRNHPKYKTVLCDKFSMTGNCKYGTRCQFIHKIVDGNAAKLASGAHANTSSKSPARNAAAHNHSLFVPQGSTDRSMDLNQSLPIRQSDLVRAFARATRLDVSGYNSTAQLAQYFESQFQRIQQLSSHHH

[4] = target: T2, Zinc finger protein mex-5 (Caenorhabditis elegans, UniProt Q9XUB2); experiment: MEX-5/TCR-2 RNA interaction inhibitors, dose response, biochemical, C. elegans, fluorescence polarization (AID 1960)
T2 sequence (Q9XUB2 whole entry): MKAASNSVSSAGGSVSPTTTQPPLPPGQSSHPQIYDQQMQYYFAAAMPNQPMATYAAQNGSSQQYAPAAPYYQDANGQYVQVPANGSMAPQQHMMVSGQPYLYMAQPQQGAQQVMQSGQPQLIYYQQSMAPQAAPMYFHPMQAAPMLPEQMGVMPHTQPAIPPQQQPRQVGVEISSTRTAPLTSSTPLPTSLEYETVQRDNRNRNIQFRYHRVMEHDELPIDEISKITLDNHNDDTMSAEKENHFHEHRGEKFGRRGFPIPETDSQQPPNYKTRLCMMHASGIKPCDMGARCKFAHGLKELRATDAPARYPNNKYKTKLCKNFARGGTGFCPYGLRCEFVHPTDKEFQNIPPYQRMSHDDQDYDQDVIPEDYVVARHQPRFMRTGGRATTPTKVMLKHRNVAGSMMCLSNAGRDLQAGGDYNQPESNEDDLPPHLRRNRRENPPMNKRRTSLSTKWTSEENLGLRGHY

[5] = target: FAD-linked sulfhydryl oxidase ALR (Homo sapiens, UniProt P55789); experiment: inhibitors of human ALR sulfhydryl oxidase, dose response, biochemical, H2O2 detection, luminescence, cherry-pick (AID 493248)
Sequence of FAD-linked sulfhydryl oxidase ALR (P55789 whole entry): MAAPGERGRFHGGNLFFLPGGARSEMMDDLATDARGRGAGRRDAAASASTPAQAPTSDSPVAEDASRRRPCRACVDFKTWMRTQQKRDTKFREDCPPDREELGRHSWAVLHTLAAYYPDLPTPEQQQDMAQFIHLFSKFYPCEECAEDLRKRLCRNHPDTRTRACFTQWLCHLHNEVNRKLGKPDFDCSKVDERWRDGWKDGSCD

[6] = target: Luciferin 4-monooxygenase (Photinus pyralis, UniProt P08659); experiment: firefly luciferase enzyme inhibitors, dose response, biochemical, luminescence (AID 1891)
Sequence of Luciferin 4-monooxygenase (P08659 whole entry): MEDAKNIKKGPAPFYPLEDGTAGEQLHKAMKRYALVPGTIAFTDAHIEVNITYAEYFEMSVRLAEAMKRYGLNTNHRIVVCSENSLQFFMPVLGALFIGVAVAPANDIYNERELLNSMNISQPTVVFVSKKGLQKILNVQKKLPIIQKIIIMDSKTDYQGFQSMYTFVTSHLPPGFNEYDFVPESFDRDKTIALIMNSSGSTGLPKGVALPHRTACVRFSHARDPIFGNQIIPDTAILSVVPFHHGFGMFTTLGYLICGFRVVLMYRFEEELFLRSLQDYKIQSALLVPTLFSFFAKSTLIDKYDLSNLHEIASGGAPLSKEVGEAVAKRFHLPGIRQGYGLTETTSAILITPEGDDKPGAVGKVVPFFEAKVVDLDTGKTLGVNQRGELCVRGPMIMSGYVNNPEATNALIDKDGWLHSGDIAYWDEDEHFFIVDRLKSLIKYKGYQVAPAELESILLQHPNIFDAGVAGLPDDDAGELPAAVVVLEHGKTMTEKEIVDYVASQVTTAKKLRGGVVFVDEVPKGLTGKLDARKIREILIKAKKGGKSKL

[7] = Luminescence Cell-Based Dose Confirmation HTS to Identify Inhibitors of Platelet Dense Granule Release. [Related pubchem assays: 1663 (Primary HTS), 1678 (Summary of Project)]; format: functional
H9c2 = experiment: cells; format: functional, cell-based; conditions: Rattus norvegicus, H9c2, Myocardium
[8] = system: Streptococcus sp. 'group A'; experiment: growth inhibition of control SK(-) GAS strain, dose response, counter-screen for streptokinase expression inhibitor project, luminescence, kanamycin, BacTiterGlo, confirmation (AID 1900); format: functional, organism-based
Streptococcus = experiment: Group A Streptococcus viability loss, dose response, counter-screen for streptokinase expression inhibitor project, luminescence, BacTiterGlo (AID 1915); format: functional, organism-based;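 further: potency for reduction of bacterial viability or growth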
Streptokinase A = target: T3, Streptokinase A (Streptococcus pyogenes serotype M1, UniProt P10520); experiment: S. pyogenes streptokinase expression inhibitors, potency, dose response, plasminogen activation absorbance, OD405 (AID 1914); format: functional, Streptococcus pyogenes M1 GAS;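 further: secreted streptokinase activity via plasminogen activation per viability signal from cell pellet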
T3 sequence (P10520 whole entry): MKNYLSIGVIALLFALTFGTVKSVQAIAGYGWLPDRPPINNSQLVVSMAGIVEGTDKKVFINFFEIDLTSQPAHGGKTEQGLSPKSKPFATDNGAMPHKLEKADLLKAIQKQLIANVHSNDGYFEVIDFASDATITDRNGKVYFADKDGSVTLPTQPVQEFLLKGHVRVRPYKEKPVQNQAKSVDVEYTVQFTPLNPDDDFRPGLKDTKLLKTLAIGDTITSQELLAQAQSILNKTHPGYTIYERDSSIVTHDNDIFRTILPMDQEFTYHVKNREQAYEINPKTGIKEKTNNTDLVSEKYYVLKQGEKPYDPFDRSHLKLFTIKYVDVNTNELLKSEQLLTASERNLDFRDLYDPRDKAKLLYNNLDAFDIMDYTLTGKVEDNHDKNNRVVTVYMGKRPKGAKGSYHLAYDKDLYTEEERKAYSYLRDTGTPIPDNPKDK

[9] = inhibitors of intracellular T. cruzi replication, confirmation, NIH3T3 host cells, beta-gal luminescence (AID 2044); format: functional, cell-based;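 further: intracellular parasites grown in NIH/3T3 mouse fibroblasts as host cells; luminescent beta-galactosidase reporter signal from transgenic T. cruzi replicating inside host cells; inhibitors lower the luminescence signal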
[10] = HEp-2 cell cytotoxicity, dose response, cytotoxicity control for RSV inhibitor project, HTS (AID 2410); format: functional; conditions: human respiratory syncytial virus
[11] = cytotoxicity toward NIH3T3 fibroblasts, dose response, counter-screen, cell-based, ATP luminescence, mouse fibroblasts (AID 2010); format: functional;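 further: cells exposed to compound for about 90 hours before reading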
Fatty acid synthase [12] = target: T4, Fatty acid synthase (Homo sapiens, UniProt P49327); experiment: FAS thioesterase domain inhibitors, dose response, biochemical, endpoint fluorescence intensity, uHTS hits (AID 624327); format: functional;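 further: fluorescence from hydrolysis of an O-methyl fluorescein acyl ester substrate by the enzyme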
T4 sequence (P49327 whole entry, the tested form may be a part): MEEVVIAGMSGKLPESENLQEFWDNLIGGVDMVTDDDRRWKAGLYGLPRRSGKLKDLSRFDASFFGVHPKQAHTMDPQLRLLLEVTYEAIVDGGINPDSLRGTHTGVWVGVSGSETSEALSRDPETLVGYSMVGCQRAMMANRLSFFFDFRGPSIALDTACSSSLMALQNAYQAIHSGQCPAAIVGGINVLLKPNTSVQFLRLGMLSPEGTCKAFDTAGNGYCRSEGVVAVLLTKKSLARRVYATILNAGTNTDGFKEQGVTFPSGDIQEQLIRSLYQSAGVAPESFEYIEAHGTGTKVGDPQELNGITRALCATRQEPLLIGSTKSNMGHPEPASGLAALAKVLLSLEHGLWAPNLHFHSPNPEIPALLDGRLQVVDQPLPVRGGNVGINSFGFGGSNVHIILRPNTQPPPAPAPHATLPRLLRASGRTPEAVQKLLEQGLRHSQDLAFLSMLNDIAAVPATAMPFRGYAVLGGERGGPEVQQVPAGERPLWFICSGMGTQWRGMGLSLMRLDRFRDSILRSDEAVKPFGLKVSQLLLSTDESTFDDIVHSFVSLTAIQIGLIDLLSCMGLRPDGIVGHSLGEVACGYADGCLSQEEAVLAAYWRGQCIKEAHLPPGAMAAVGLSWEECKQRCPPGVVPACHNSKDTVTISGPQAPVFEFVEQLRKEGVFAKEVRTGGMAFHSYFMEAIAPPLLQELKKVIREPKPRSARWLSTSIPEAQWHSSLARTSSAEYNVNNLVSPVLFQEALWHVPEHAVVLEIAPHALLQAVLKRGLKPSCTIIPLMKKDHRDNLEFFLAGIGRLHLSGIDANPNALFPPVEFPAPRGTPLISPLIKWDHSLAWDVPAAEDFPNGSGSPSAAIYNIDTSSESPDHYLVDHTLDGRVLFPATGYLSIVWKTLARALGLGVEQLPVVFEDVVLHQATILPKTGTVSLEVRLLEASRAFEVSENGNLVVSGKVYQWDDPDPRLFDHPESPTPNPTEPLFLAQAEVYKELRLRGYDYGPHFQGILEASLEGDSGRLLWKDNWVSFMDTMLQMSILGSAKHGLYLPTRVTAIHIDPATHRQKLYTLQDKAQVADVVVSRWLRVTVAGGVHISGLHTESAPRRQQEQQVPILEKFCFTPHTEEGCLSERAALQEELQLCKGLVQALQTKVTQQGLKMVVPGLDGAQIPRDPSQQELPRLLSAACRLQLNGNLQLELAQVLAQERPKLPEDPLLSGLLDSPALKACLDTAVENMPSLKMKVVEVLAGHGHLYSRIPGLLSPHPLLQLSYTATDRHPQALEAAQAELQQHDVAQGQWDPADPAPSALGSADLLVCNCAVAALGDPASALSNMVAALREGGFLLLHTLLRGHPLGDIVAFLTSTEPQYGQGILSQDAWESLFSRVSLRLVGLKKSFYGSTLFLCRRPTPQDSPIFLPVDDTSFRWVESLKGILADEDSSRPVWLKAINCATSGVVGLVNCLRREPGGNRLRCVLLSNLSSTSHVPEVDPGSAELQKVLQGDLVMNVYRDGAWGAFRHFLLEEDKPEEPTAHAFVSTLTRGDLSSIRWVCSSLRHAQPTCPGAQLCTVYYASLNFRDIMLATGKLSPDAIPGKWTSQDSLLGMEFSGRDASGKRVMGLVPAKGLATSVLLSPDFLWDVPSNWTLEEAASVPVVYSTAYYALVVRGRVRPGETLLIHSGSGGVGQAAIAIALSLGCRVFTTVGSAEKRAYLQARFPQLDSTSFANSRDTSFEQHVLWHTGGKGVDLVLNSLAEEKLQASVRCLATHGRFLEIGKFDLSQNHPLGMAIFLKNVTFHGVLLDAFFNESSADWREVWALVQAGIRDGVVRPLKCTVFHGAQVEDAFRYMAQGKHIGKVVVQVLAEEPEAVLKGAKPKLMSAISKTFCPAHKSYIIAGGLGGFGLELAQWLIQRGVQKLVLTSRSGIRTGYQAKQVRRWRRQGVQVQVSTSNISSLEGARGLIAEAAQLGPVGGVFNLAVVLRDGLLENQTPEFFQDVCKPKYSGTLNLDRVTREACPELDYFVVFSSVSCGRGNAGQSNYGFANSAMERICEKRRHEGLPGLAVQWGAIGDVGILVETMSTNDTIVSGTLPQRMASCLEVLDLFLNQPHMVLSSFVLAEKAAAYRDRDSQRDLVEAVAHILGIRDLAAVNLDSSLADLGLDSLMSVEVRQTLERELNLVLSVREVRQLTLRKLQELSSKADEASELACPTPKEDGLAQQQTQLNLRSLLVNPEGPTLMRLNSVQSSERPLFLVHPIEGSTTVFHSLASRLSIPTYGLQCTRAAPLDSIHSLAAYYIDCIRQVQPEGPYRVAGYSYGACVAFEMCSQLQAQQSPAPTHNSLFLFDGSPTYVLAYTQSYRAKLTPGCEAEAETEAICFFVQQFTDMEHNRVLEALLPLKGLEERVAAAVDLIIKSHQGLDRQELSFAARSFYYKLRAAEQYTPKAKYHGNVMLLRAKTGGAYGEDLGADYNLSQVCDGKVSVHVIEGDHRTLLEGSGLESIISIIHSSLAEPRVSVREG

Fatty acid synthase [13] = target: T4, Fatty acid synthase; experiment: FAS thioesterase domain inhibitors, dose response, biochemical, kinetic fluorescence intensity (AID 624326); format: functional;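 further: rate of fluorescence rise from hydrolysis of a fluorogenic O-methyl fluorescein ester substrate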
[14] = target: T5, Replicative DNA helicase DnaB (Mycobacterium tuberculosis, UniProt P9WMR3); experiment: DnaB intein splicing inhibitors, dose response, biochemical, cell-free fluorescence (AID 449749); format: functional
T5 sequence (P9WMR3 whole entry): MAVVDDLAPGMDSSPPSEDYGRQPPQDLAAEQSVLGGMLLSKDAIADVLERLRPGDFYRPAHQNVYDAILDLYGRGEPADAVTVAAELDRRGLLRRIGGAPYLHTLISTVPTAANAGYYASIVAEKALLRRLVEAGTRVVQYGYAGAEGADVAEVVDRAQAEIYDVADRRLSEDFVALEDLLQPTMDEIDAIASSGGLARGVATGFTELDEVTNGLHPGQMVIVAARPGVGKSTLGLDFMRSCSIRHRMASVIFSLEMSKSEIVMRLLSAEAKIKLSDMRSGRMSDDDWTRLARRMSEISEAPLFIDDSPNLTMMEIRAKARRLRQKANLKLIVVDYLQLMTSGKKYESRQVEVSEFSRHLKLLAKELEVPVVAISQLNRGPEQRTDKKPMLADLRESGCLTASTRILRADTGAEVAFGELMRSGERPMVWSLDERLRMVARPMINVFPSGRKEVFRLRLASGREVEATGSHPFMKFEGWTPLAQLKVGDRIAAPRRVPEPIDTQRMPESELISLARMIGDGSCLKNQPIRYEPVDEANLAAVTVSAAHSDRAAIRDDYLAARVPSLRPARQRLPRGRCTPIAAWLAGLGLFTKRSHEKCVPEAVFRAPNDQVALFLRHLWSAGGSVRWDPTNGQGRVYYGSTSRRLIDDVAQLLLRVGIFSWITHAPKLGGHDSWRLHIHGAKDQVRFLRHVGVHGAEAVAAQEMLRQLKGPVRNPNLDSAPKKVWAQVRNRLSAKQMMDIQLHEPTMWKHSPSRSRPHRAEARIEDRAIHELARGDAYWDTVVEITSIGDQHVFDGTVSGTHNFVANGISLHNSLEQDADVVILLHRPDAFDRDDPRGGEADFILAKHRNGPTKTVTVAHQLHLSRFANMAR

Protein RecA = target: T6, Protein RecA (Mycobacterium tuberculosis, UniProt P9WHJ3); experiment: Fluorescence Cell-Free Homogeneous Dose Retest to Identify Inhibitors of RecA-Intein Splicing Activity. [Related pubchem assays (depositor defined):AID2097, AID2223, AID489010, AID492950]; format: functional
T6 sequence (P9WHJ3 whole entry): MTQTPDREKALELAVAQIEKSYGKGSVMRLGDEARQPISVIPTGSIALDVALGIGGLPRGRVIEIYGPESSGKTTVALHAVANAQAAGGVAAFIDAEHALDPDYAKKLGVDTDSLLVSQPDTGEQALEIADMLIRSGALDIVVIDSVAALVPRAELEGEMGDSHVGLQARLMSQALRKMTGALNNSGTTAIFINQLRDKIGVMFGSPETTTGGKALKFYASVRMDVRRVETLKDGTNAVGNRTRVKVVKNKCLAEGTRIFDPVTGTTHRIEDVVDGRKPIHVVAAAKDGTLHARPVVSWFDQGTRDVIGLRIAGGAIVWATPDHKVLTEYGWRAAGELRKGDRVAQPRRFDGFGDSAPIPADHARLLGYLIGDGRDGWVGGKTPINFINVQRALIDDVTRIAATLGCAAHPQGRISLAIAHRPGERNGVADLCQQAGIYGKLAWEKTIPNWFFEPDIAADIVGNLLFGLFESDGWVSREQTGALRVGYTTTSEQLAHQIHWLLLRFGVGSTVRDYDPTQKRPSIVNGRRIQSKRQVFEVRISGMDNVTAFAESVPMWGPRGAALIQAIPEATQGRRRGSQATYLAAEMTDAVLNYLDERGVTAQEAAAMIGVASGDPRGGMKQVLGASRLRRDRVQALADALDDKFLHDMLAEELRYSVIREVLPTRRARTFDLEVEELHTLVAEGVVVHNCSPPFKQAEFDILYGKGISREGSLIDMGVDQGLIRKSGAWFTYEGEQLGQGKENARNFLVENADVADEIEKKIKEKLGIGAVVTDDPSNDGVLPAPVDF

## CN1CCc2c(sc3nc(SCC(=O)NCc4ccco4)n(-c4ccccc4)c(=O)c23)C1
[1]
  EC50: 10.2 µM (active)
H4
  EC50: 25.5 µM (active)
[2]
  EC50: 17.9 µM (active)

## O=C(N=Nc1c(O)n(C2OC(=O)c3ccccc32)c2ccccc12)c1ccco1 (stereo not drawn)
[1]
  EC50: 11.4 µM (active)
H4
  EC50: 15 µM (active)
[2]
  EC50: 11.5 µM (active)

## O=C1NC(=S)N(c2ccccc2F)C(=O)/C1=C/Nc1ccc(N2CCOCC2)cc1
Large T antigen
  IC50: 4.54 µM (active)

## CN1C(=O)C(=Cc2c[nH]c3ccc(Br)cc23)C(=O)N(C)C1=O
[3]
  EC50: > 300 µM (not active)
[4]
  EC50: > 300 µM (not active)

## CCOC(=O)C1=C(Nc2ccccc2)S/C(=C\c2cn(CC(=O)N3CCCC3)c3ccccc23)C1=O
[3]
  EC50: 47.5 µM (active)
[4]
  EC50: 26.2 µM (active)

## CN(C)c1ccc(NC(=O)CN2CCN(S(=O)(=O)c3cc(Cl)ccc3Cl)CC2)cc1
[5]
  AC50: 2.31 µM (active)
[6]
  EC50: > 112 µM (not active)
[7]
  EC50: > 112 µM (not active)

## O=C(COc1ccccc1[N+](=O)[O-])Nc1ccc(NC(=O)c2cc3ccccc3o2)cc1
[1]
  EC50: > 120 µM (not active)
H4
  EC50: > 120 µM (not active)
[2]
  EC50: > 120 µM (not active)

## O=C(Nc1cccc(Cl)c1)c1ccc2ncsc2c1
[1]
  EC50: 91.3 µM (active)
H4
  EC50: 34.6 µM (active)
[2]
  EC50: 4.28 µM (active)

## CCc1nc(N2CCN(C(=O)c3ccco3)CC2)c2oc3ccccc3c2n1
[6]
  EC50: > 112 µM (not active)
H9c2
  IC50: > 79 µM (inactive)
[7]
  EC50: > 112 µM (not active)

## O=C(N/N=C/c1cc(Cl)cc([N+](=O)[O-])c1O)C(O)(c1ccccc1)c1ccccc1
[8]
  EC50: 3.8 µM (active)
Streptococcus
  EC50: 7.21 µM (active)
[3]
  EC50: > 300 µM (not active)
Streptokinase A
  EC50: > 150 µM (not active)
[4]
  EC50: 40.2 µM (active)

## COc1ccccc1N1CC(C(=O)Nc2nnc(SCC(=O)NC(C)C)s2)CC1=O (stereo not drawn)
[3]
  EC50: > 300 µM (not active)
[4]
  EC50: > 300 µM (not active)

## Cc1c2c(nc3ccccc13)CCC(C(C)(C)C)C2 (stereo not drawn)
[9]
  EC50: 3.67 µM (active)
[1]
  EC50: 4.26 µM (active)
H4
  EC50: 12.7 µM (active)
[10]
  CC50: 44.4 µM (active)
[11]
  EC50: > 60 µM (not active)
[2]
  EC50: 26.6 µM (active)

## COc1cc(C2NC(S)=NC(C)=C2C(=O)Nc2ccc(C)cc2)ccc1O (stereo not drawn)
[1]
  EC50: 22.4 µM (active)
H4
  EC50: 21.8 µM (active)
[2]
  EC50: 15.1 µM (active)

## CCOc1cccc2cc(C(=O)NCCC3=CCCCC3)c(=O)oc12
[1]
  EC50: > 120 µM (not active)
Fatty acid synthase [12]
  IC50: 3.95 µM (active)
Fatty acid synthase [13]
  IC50: 4.15 µM (active)
H4
  EC50: 25 µM (active)
[2]
  EC50: 7.15 µM (active)

## CCNc1ccc(N=Nc2c(C)n(C)n(-c3ccccc3)c2=O)cc1
Large T antigen
  IC50: 7.88 µM (active)

## Cc1ccc(-n2c(C)nc3c(cnn3-c3ccc(C)c(C)c3)c2=O)cc1C
[1]
  EC50: 8.78 µM (active)
H4
  EC50: 43.9 µM (active)
[10]
  CC50: 48.5 µM (active)
[2]
  EC50: 10.2 µM (active)

## N#CC1=C(N)C(C#N)(C#N)C(c2cccnc2)C2CN(C(=O)OCc3ccccc3)CC=C12 (stereo not drawn)
[6]
  EC50: > 112 µM (not active)
[14]
  AC50: > 380 µM (inactive)
Protein RecA
  EC50: 2.59 µM (active)
[7]
  EC50: 15.6 µM (active)

## COc1cccc(N2C(=O)/C(=C/c3ccc(C)o3)C(=O)NC2=S)c1
[3]
  EC50: > 300 µM (not active)
[4]
  EC50: 44.5 µM (active)

## c1ccc(-c2ccc(-c3n[nH]cc3CN3CCC(N4CCSCC4)CC3)cc2)cc1
[1]
  EC50: 15.8 µM (active)
H4
  EC50: 12.4 µM (active)
[2]
  EC50: 14.4 µM (active)
